Test results: patent publication US8969554B2, “6-acyl-1,2,4-triazine-3,5-dione derivative and herbicides” (Kumiai Chemical Industry Co., Ltd., priority 2010, dated 2015)

Tests used:
Format in all cases: in vivo
Echinochloa crus-galli [1] = test: Herbicidal activity by field foliage treatment (Test example 3); set-up: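 index 0 to 10 in 10% steps of herbicidal effect with 10 meaning complete death and 0 below 10%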; conditions: 1000 g effective component per hectare, day 14 after the treatment
Summary of the method: (§1)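 Potted field-soil plants grown 2 weeks in a greenhouse were sprayed over the whole foliage with diluted wettable powder at 1000 L/ha, delivering 1000 g active ingredient per hectare. Herbicidal effect scored by visual criteria 14 days after treatment.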

Setaria viridis = test: as above; conditions: 1000 g effective component per hectare, day 14 after the treatment;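 also: index 0 to 10 in 10% steps of herbicidal effect with 10 meaning complete death and 0 below 10%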
Summary of the method: as §1

Echinochloa oryzicola = test: Herbicidal activity by paddy field soil treatment (Test Example 1); set-up: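 index 0 to 10 in 10% steps of herbicidal effect with 10 meaning complete death and 0 below 10%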; conditions: 1000 g of effective component per hectare, evaluated on day 21 after the treatment, criteria of Table 72
Summary of the method: (§2)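 Flooded-paddy pre-emergence assay at 1000 g a.i./ha, applied to the water surface one day after sowing; visual herbicidal score at day 21 in greenhouse.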

Scirpus juncoides Rocxb. = test: as above; set-up: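 index 0 to 10 in 10% steps of herbicidal effect with 10 meaning complete death and 0 below 10%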; conditions: applied on water surface, 1000 g of effective component per hectare, day 21 after the treatment
Summary of the method: as §2

Monochoria vaginalis = test: as above; set-up: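 index 0 to 10 in 10% steps of herbicidal effect with 10 meaning complete death and 0 below 10%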; conditions: 1000 g of effective component per hectare, evaluated on day 21 after the treatment, criteria of Table 72
Summary of the method: as §2

Echinochloa crus-galli [2] = test: Herbicidal activity by field soil treatment (Test example 2); set-up: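 index 0 to 10 in 10% steps of herbicidal effect with 10 meaning complete death and 0 below 10%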; conditions: 1000 g effective component per hectare, day 21 after the treatment
Summary of the method: (§3)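 A wettable powder formulation, diluted with water, is applied to soil over just-sown seeds at an effective rate of 1000 g/ha. Effects are judged 21 days later after greenhouse growth.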

A. retroflexus [3] = test: as above; set-up: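 index 0 to 10 in 10% steps of herbicidal effect with 10 meaning complete death and 0 below 10%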; conditions: 1000 g effective component per hectare, day 21 after the treatment
Summary of the method: as §3

Indian millet [4] = test: as above; set-up: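 index 0 to 10 in 10% steps of herbicidal effect with 10 meaning complete death and 0 below 10%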; conditions: 1000 g effective component per hectare, day 21 after the treatment
Summary of the method: as §3

A. retroflexus [5] = test: Herbicidal activity by field foliage treatment (Test example 3); set-up: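 index 0 to 10 in 10% steps of herbicidal effect with 10 meaning complete death and 0 below 10%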; conditions: 1000 g effective component per hectare, day 14 after the treatment
Summary of the method: (§4)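 Test plants, grown from seed for two weeks in a greenhouse, are treated by foliar application of a wettable-powder formulation in water at a rate of 1000 g effective component per hectare. Damage is assessed 14 days later.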

Indian millet [6] = test: as above; set-up: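 index 0 to 10 in 10% steps of herbicidal effect with 10 meaning complete death and 0 below 10%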; conditions: 1000 g effective component per hectare, day 14 after the treatment
Summary of the method: as §4

foxtail = test: Herbicidal activity by field soil treatment (Test example 2); conditions: 1000 g effective component per hectare, day 21 after the treatment;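 also: index 0 to 10 in 10% steps of herbicidal effect with 10 meaning complete death and 0 below 10%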
Protocol: [table] Test for Determining Herbicidal Activity by Field Soil Treatment A 80 cm^2 wide plastic pot was filled with a field soil and seeds of each of Echinochloa crus-galli, foxtail, Indian millet, and A. retroflexus were sowed and then covered with soil. The wettable powder produced with reference to the Formulation example 1 was diluted water, and applied on the soil surface by using a small sprayer in an amount of 1000 liters per hectare so that the effective component is 1000 g per hectare. After that, the plants were cultivated in a greenhouse, and on day 21 after the treatment, evaluation was made by the criteria described in Table 72 for determining the herbicidal effects.

Row | SMILES | herbicidal effect index, Echinochloa crus-galli (Echinochloa crus-galli [1]) | herbicidal effect index, Setaria viridis (Setaria viridis) | Herbicidal effects index number, Echinochloa oryzicola (Echinochloa oryzicola) | herbicidal effect index, S. juncoides Rocxb. (Scirpus juncoides Rocxb.) | Herbicidal effects index number, Monochoria vaginalis (Monochoria vaginalis) | herbicidal effect index, Echinochloa crus-galli (Echinochloa crus-galli [2]) | herbicidal effect index, Amaranthus retroflexus (A. retroflexus [3]) | herbicidal effect index, Abutilon theophrasti (Indian millet [4]) | herbicidal effect index, Amaranthus retroflexus (A. retroflexus [5]) | herbicidal effect index, Abutilon theophrasti (Indian millet [6]) | herbicidal effect index, Setaria viridis (foxtail)
1 | Cn1nc(C(=O)C2=C(O)CCCC2=O)c(=O)n(C)c1=O [I-1] | 8 | 8 | 10 | 10 | 10 | 8 | 10 | 9 | 10 | 9 | 7
2 | CCn1c(=O)c(C(=O)C2=C(O)CCCC2=O)nn(C)c1=O [I-2] | 9 | 10 | 10 | 10 | 10 | 10 | 10 | 10 | 10 | 10 | 7
3 | CCCn1c(=O)c(C(=O)C2=C(O)CCCC2=O)nn(C)c1=O [I-3] | 9 | 9 | 10 | 10 | 10 | 10 | 10 | 10 | 9 | 9 | 10
4 | Cn1nc(C(=O)C2=C(O)CCCC2=O)c(=O)n(C2CCCCC2)c1=O [I-19] | 10 | 10 | 10 | 10 | 10 | 8 | 8 | – | 10 | 10 | 8
5 | COc1cc(-n2c(=O)c(C(=O)C3=C(O)CCCC3=O)nn(C)c2=O)ccc1F [I-111] | 10 | – | 10 | 10 | 10 | 9 | 10 | 9 | 10 | 10 | 7
6 | COc1cc(-n2c(=O)c(C(=O)C3=C(O)CCCC3=O)nn(C)c2=O)ccc1Cl [I-131] | 10 | – | 9 | 10 | 10 | 9 | 10 | 9 | 10 | 10 | 7
7 | Cc1c(Cl)cccc1-n1c(=O)c(C(=O)C2=C(O)CCCC2=O)nn(C)c1=O [I-136] | 9 | 9 | 9 | 10 | 10 | – | 9 | 9 | 10 | 9 | 8
8 | COc1cc(-n2c(=O)c(C(=O)C3=C(O)CCCC3=O)nn(C)c2=O)ccc1C [I-155] | 9 | 7 | 10 | 10 | 10 | – | 10 | 10 | 10 | 10 | 7
9 | CC(C)n1nc(C(=O)C2=C(O)CCCC2=O)c(=O)n(-c2ccccc2)c1=O [I-260] | 8 | – | 10 | 10 | 10 | 10 | 10 | 10 | 10 | 10 | 5
10 | Cc1cncc(-n2c(=O)c(C(=O)C3=C(O)CCCC3=O)nn(C)c2=O)c1 [I-278] | 10 | 10 | 8 | 10 | 9 | 9 | 10 | – | 10 | 9 | 9
11 | Cn1nc(C(=O)C2=C(O)CCCC2=O)c(=O)n(-c2ccc(Cl)nc2)c1=O [I-280] | 9 | – | 10 | 10 | 10 | 9 | 10 | 9 | 10 | 9 | 8
12 | Cc1cc(I)ccc1-n1c(=O)c(C(=O)C2=C(O)CCCC2=O)nn(C)c1=O [I-283] | 8 | – | 10 | 10 | 10 | 9 | 10 | 9 | 8 | 8 | 8
13 | Cn1nc(C(=O)C2=C(O)CCCC2=O)c(=O)n(CC(=O)OC(C)(C)C)c1=O [I-294] | 9 | – | 9 | 9 | 9 | 9 | 10 | 9 | 8 | 7 | 7
14 | COc1c(Cl)cc(-n2c(=O)c(C(=O)C3=C(O)CCCC3=O)nn(C)c2=O)cc1Cl [I-299] | 8 | – | 10 | 10 | 10 | 9 | 10 | 10 | 10 | 9 | 10
15 | Cc1ccc(-n2c(=O)c(C(=O)C3=C(O)C(C)(C)C(=O)C(C)(C)C3=O)nn(C)c2=O)c(C)c1 [VI-65] | 9 | 7 | 10 | 10 | 10 | – | 10 | 10 | 10 | 10 | 7
